row,Structure (SMILES),melting point [°C]
1,Cc1ccc(-c2ccc(O)cc2)c(-c2ccc(OCCN3CCCCC3)cc2)n1,90 to 100
2,Cc1cc(C(=O)N2Cc3cccn3Cc3ccccc32)ccc1C1=CCC2CCC1C2 (stereo not given),168 to 169
3,c1cnc2[nH]c(CCCN3CCOCC3)nc2c1,101 to 103
4,O=C(COc1ccc(Cl)cc1)CS(=O)(=O)C(c1ccc(Cl)cc1)c1ccc(Cl)cc1,105 to 107
5,CN1C(=O)C(c2ccc(OC(F)F)cc2)(c2cccc(C3CC(=O)C3(C)C)c2)N=C1N (stereo not given),172 to 174
6,COC(=O)c1ccc(Br)c(S)c1,81
7,CC(=O)Nc1ccc(C)c2c1C(=O)CCN2CC#N,190 to 193
8,O=C(CCCC(=O)Oc1cc(O)cc(O)c1)Oc1cc(O)cc(O)c1,205 to 208
9,COc1ccc2c(c1)OC1(O)c3ccccc3C(=O)C21O (stereo not given),98 to 100
10,O=C(NCC(=O)N1c2ccccc2N(Cc2ccccc2)C(=O)[C@H]2CCC[C@H]21)c1ccc(C(F)(F)F)cc1 (relative stereo),218 to 220
11,COC(=O)c1cc(-c2ccc(OC)c(OC)c2)nc2ccc(Br)cc12,154
12,[N-]=[N+]=Nc1nc(N=[N+]=[N-])c2ncn(COC(CO)CO)c2n1,174 to 180
13,CS(=O)(=O)c1cc(C(=O)N=C(N)N)ccc1Oc1ccc(=O)[nH]n1,268 to 270
14,COC(=O)c1cc2cccc(OC)c2cc1O,182
15,Cc1cc(C(=O)c2[nH]c3cc(Cl)ccc3c2CC(=O)O)no1,227 to 229
16,NC(=O)c1cccc2c1OC(CN1CC=C(c3c[nH]c4ccc(F)cc34)CC1)CO2 (stereo not given),195 to 197
17,CCOC(=O)c1cn(-c2cc(OC)c(F)cc2F)c2c(C)c([N+](=O)[O-])c(F)cc2c1=O,248 to 250
18,Nc1ncnc2sc(CCO)c(-c3ccc(NC(=O)Nc4cccc(C(F)(F)F)c4)cc3)c12,155 to 158
19,O=C(Nc1ccc(C(F)(F)F)cc1)OC1CCCNC1 (stereo not given),150 to 151
20,COc1cc2c(cc1OC)N(C)C(=O)CN=C2c1cncc2ccccc12,131 to 135
21,O=c1c2c(F)cccc2nc(C(S)c2ncnc3[nH]cnc23)n1-c1ccccc1Cl (stereo not given),223 to 224
22,COc1ccc2c(c1)[nH]c1c(C)nc3c(c12)C(=O)CC(C)(C)C3,250 to 252
23,O=C(OCc1ccccc1)N1C=CC(c2cccc(Cl)c2Cl)C=C1,69 to 70
24,CN1CCc2c(-c3ccc([N+](=O)[O-])cc3)cc3c(c2C1)NC(=O)C3=O,> 300
25,CC(=O)NC[C@H]1CN(c2ccc(N3CCC4(CC3)NCCO4)c(F)c2)C(=O)O1,138 to 140

row,Structure (SMILES),melting point [°C]
1,Cc1cc2c(s1)Nc1ccccc1NC2=S,259 to 260
2,COc1ccc2oc3ccc(C=O)cc3c(=O)c2c1,167 to 169
3,CN1Cc2cccc3[nH]cc(c23)C1,185 to 186
4,CC(=O)N(C#N)Cc1ccccc1,42
5,N#Cc1ccc(-c2ccc(F)cc2)nc1Cl,178
6,COc1cc2cc3ncc(C#N)c(Cl)c3cc2cc1OC,> 265
7,O=c1[nH]c(=O)c2c3c(cc([N+](=O)[O-])c2[nH]1)OCO3,285
8,COC(=O)c1ccc(NC(=O)C(=O)c2ccc3c(c2)C(C)(C)CCC3(C)C)cc1O,146 to 147
9,O=C(O)[C@H](COCc1ccccc1)NC1(c2ccccc2)c2ccccc2-c2ccccc21,137 to 138
10,CCc1ccc(C(O)COc2ccc(CC3SC(=O)NC3=O)cc2)nc1 (stereo not given),129 to 130
11,C#Cc1ccc(-c2c(C)n[nH]c(=O)c2-c2c(F)cc(F)cc2F)cc1,252 to 254
12,O=C(O)C=CC=CC=CC1=Cc2cc(-c3ccccc3)ccc2OC1,260
13,CCCCc1cn(CC(C)(C)C)c(=O)n1Cc1ccc(-c2ccccc2-c2nnn[nH]2)nc1,194 to 195
14,O=Cc1ccn(C2=CC3=C(CC2)CCc2[nH]c(=O)c(=O)n(CC(=O)O)c23)c1,> 250
15,O=C(O)c1ccc(CO)c2ccccc12,183 to 184
16,O=C(O)c1ccc(S(=O)(=O)CCCl)cc1,142 to 144
17,CNC(C)=C(C#N)C(=O)c1ccc(Cl)cc1,152
18,Cc1cccc(C(=O)Nc2c(C(O)(C(F)(F)F)C(F)(F)F)ccc3ccccc23)c1,167 to 168
19,Cc1c(C#N)c(O)cc2nc(Cc3ccccc3)nn12,319 to 320
20,Nc1nc(N)c(-c2ccc(Cl)cc2Cl)c(CBr)n1,> 270
21,OCCN(CCO)CC(c1ccc(Cl)cc1)c1ccc(Cl)cc1,75 to 76
22,COc1ccc(N2CCN(c3c(C)c(C)c4c(c3C)C(O)(c3ccc5ccccc5c3)C(C)(C)O4)CC2)cc1 (stereo not given),189 to 190
23,Cc1c(CCC(=O)O)oc2cccc(O)c12,114 to 117
24,OCCc1ncn(C(c2ccccc2)(c2ccccc2)c2ccccc2)n1,127 to 129
25,COc1cn(-c2ccc(C3CC3)cc2F)nc(-c2ccnn2-c2ccccc2)c1=O,140 to 142

row,Structure (SMILES),melting point [°C]
1,Fc1ccc(Cn2c(N3CCC(Nc4nc5ccccc5n4Cc4ccccc4)CC3)nc3ccccc32)cc1,164
2,COC(=O)C(C)(C)OCc1cc2cc(C(F)(F)F)ccc2n1S(=O)(=O)c1ccc2c(c1)OCCN2C,96 to 98
3,CCCCc1nc(CO)c(C(=O)ON2C(=O)CCC2=O)n1Cc1ccc(-c2ccccc2C(=O)OC(C)(C)C)cc1,107 to 109
4,CCCNCC(O)c1ccc(F)cc1 (stereo not given),58.6 to 78.8
5,CCCc1cc(OC)ccc1-c1noc2cc(OC)ccc12,71 to 72
6,S=C1CNc2ccccc2CN1,150 to 153
7,N#Cc1cn(-c2ccc(F)cc2F)c(=O)n(SC(Cl)(Cl)Cl)c1=O,196 to 198
8,CS(=O)(=O)c1ccc(-c2cc(CCCO)nn2C2CCCCC2)cc1,138
9,CC(=O)OC1CC2(C)C(CCC23OCCO3)C2CC=C3CC(O)CCC3(C)C12 (stereo not given),125 to 126
10,CC(C)Cc1cc2cc(O)ccc2c(Oc2ccc(/C=C/C(=O)O)cc2)c1-c1ccccc1,126 to 128
11,CCCCCN1C(=O)C(O)(c2cc3c(cc2O)OCO3)c2cnccc21 (stereo not given),193 to 195
12,COc1cc(N)c(Cl)cc1C(=O)CC(O)c1ccncc1 (stereo not given),181 to 183
13,CCC(CC)C(NS(=O)(=O)c1ccc(Cl)cc1)c1ccnn1-c1ccccc1 (stereo not given),135 to 136
14,CCN1CCCOc2cc(Nc3ncc(Cl)c(N[C@@H]4CCCC[C@H]4NS(C)(=O)=O)n3)ccc21,108 to 110
15,N#CC(c1ccc(Cl)cc1)c1ccc(-n2ncc(=O)[nH]c2=O)cc1Cl (stereo not given),197
16,CCN1c2ccccc2C=C(Br)c2ccccc21,148
17,N#CC1(c2ccc(OCc3ccc(F)cc3)c(OC3CCCC3)c2)CCC(=NO)CC1 (stereo not given),55 to 57
18,O=C(O)c1ccccc1COC1CCn2c(CCc3ccccc3)nc3cccc1c32 (stereo not given),154 to 155
19,N#Cc1ccc(-c2cn(-c3ccc(C#N)cc3)c(Cc3ccccc3)n2)cc1,168 to 188
20,CCOC(=O)c1nc(NC)sc1-c1cn2ccc(C)cc2n1,210 to 213
21,O=C1c2ccccc2CCC1CN1CCC(O)(c2ccccc2)CC1 (stereo not given),164 to 167
22,Cc1nccn1-c1nc(-c2ccc(C(F)(F)F)cc2)c(CCCO)o1,127 to 129
23,CCCCCCCCCCC#Cc1cccc([C@H]2O[C@@H]2CO)c1,41 to 42
24,CN(CCO)c1ccncc1,90 to 91
25,CN(C(=O)Cc1cccc2ccccc12)C1c2ccccc2CC1N1CCCC1 (stereo not given),127

row,Structure (SMILES),melting point [°C]
1,CC(=O)NCCn1nnnc1Sc1ccc([N+](=O)[O-])cc1[N+](=O)[O-],197 to 198
2,O=c1[nH]ncc2[nH]c(-c3ccc(OC(F)F)c(OC4CC4)c3)c(CC3CC3)c12,204 to 206
3,COC(=O)CCCCc1ccc(O)c(CCC(=O)OC)n1,92 to 95
4,CC(C)C(C(=O)O)N(CCN1CCOCC1)S(=O)(=O)c1ccc(-c2ccc(NC(=O)c3cc4ccccc4o3)cc2)cc1 (stereo not given),181 to 185
5,CC(=O)CCS(=O)(=O)c1ccc(C=C(C)c2ccc3c(c2)C(C)(C)CCC3(C)C)cc1,135 to 136
6,COc1ccc(-c2ccc(Cl)cc2)cc1COc1cccc2cc(NS(=O)(=O)C(F)(F)F)ccc12,155 to 157
7,CN(C)c1ccc2[nH]c3c([N+](=O)[O-])ccc(Cl)c3c(=O)c2c1,> 300
8,C=C(C)C(=O)NCCNC(=O)c1ccc2ccccc2c1O,167 to 169
9,CCCC(=O)SCC(Cc1ccccc1)C(=O)Nc1cccc(C(=O)O)c1C (stereo not given),136 to 141
10,OCCOc1nc(N2CCCCC2)c2nc(OCCO)nc(N3CCCCC3)c2n1,148 to 150
11,Nc1cccc(CNC(=O)C2Cc3ccccc3N2S(=O)(=O)c2ccc(-c3cccc(C(F)(F)F)c3)cc2)c1 (stereo not given),82
12,O=C1Nc2ccccc2N(C(=O)N2CCCC(CCN3CCCCCC3)C2)c2ncccc21 (stereo not given),152 to 154
13,O=C1c2ccc(SCCO)cc2C(=O)c2cc3ccccc3cc21,195 to 196
14,NCCCCCCO[PH](=O)CC(=O)O (stereo not given),236 to 238
15,O=c1[nH]c2cc(F)c(Br)c([N+](=O)[O-])c2[nH]c1=O,323 to 327
16,N#CCCCCCCCCNS(=O)(=O)c1cccc(Cl)c1,42 to 43
17,Cc1nc(C2CC2)nc(C)c1N1CCCn2c1nc1c(Cl)ccc(C(OC(F)F)C(F)(F)F)c12 (stereo not given),191 to 193
18,O=S(=O)(Cl)c1ccc(Oc2ccc(Br)cc2)cc1,80.9
19,O=[N+]([O-])c1ccccc1NC1CCN(Cc2ccccc2)CC1,93.4 to 94.6
20,CC1(C)N=C(c2ccccc2)CC1c1ccccn1 (stereo not given),101 to 102
21,O=CCCc1nc(-c2ccc(Cl)cc2)co1,41 to 42
22,CCCCCCC(CO)c1nc([N+](=O)[O-])c[nH]1 (stereo not given),83 to 84
23,COc1cc2cc(/C=N\O)sc2cc1OC,211 to 215
24,Cn1ccc2ccc(N3Cc4ccc(-c5cccnc5)cc4C3=O)cc21,187 to 188
25,CN1C(=O)C(c2ccc(OC(F)F)cc2)(C23CC4CC(CC(C4)C2)C3)N=C1N (stereo not given),216 to 218

# — a melting point compilation (Tetko et al.; mined from patent text by program, amines drawn as free bases though some values may be those of a salt)
